Laboratory results published in ChEMBL document CHEMBL4041480, “Natural and synthetic bioactive inhibitors of glycogen synthase kinase” (Eur J Med Chem, 2017).
One block for each molecule: values may come before it.

Tests used:
[1] = target: T1, Glycogen synthase kinase-3 beta (Homo sapiens, UniProt P49841)
Description: Inhibition of full length recombinant human His-tagged GSK3beta expressed in baculovirus expression system using Ser/Thr 9 peptide substrate by Z'-LYTE assay

[2] = target: T1, Glycogen synthase kinase-3 beta; remark: listed apart in the source
Description: Inhibition of GST-tagged GSK3beta (unknown origin) expressed in Escherichia coli BL21-CodonPlus (DE3) by Z'-LYTE assay

[3] = target: T1, Glycogen synthase kinase-3 beta; remark: listed apart in the source
[4] = target: T1, Glycogen synthase kinase-3 beta; remark: listed apart in the source

T1 sequence (P49841 whole entry): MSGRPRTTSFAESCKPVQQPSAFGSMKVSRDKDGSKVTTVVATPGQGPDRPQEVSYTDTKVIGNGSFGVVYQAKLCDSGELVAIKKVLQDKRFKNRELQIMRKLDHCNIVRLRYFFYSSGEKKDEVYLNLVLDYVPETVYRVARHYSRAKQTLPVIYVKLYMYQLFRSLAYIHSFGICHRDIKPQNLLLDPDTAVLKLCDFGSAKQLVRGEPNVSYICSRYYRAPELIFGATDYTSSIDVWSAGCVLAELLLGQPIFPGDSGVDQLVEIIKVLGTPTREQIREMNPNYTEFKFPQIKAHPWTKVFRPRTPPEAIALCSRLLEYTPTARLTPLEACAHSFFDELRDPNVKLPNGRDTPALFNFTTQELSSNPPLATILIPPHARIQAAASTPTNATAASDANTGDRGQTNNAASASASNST

Structure (SMILES): [Zn]
IC50 [3]: 15000 nM

Structure (SMILES): N=C1N[C@H]2c3c([nH]c(Br)c3Br)C(=O)C3CCC[C@@]32N1 (stereo not given in full)
IC50 [3]: 3000 nM

Structure (SMILES): O=c1[nH]nc2c(NCCc3ccncc3)cc(Cl)cn12
IC50 [4]: 111 nM

Continued, values first:

IC50 [1]: 0.73 nM
Structure (SMILES): O=C1NC(=O)C(c2cn(CCC3N=CC=N3)c3ccccc23)=C1c1noc2ccccc12

IC50 [2]: 340 nM
Structure (SMILES): Cn1cc(C2=C(c3nn(CCCN4CCOCC4)c4ncccc34)C(=O)NC2=O)c2ccccc21
